Source: PubChem BioAssay AID1918954 (Molecular Pharmacology Branch, DTP, NCI, 2023)

Test system: MDA-MB-468 complex spheroids with HUVEC/MSC, viability
Test: Anticancer human tumor MDA-MB-468 cell line growth inhibition;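 also: spheroids exposed to agents for seven days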;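 as to viability, T/C: 100% = DMSO vehicle control viability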
Conditions: for IC50: curve of first compound; for viability, T/C: stronger effect = lower value
Outline: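 Multicellular complex spheroids of tumor cells with human endothelial cells (HUVEC) and mesenchymal stem cells; the LSD1 inhibitor iadademstat was combined with standard-of-care or investigational agents. Top concentration at or near clinical Cmax, half-log dilutions; final DMSO ≤0.25%.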

[1] = second compound 0.1 µM, first compound 0.000316 µM
[2] = second compound 0.1 µM, first compound 0.001 µM
[3] = second compound 0.1 µM, first compound 0.00316 µM
[4] = second compound 0.1 µM, first compound 0.01 µM
[5] = second compound 0.1 µM, first compound 0.0316 µM
[6] = second compound 0.1 µM, first compound 0.1 µM
[7] = second compound 0.316 µM, first compound 0.000316 µM
[8] = second compound 0.316 µM, first compound 0.001 µM
[9] = second compound 0.316 µM, first compound 0.00316 µM
[10] = second compound 0.316 µM, first compound 0.01 µM
[11] = second compound 0.316 µM, first compound 0.0316 µM
[12] = second compound 0.316 µM, first compound 0.1 µM
[13] = second compound 1 µM, first compound 0.000316 µM
[14] = second compound 1 µM, first compound 0.001 µM
[15] = second compound 1 µM, first compound 0.00316 µM
[16] = second compound 1 µM, first compound 0.01 µM
[17] = second compound 1 µM, first compound 0.0316 µM
[18] = second compound 1 µM, first compound 0.1 µM
[19] = second compound 3.16 µM, first compound 0.000316 µM
[20] = second compound 3.16 µM, first compound 0.001 µM
[21] = second compound 3.16 µM, first compound 0.00316 µM
[22] = second compound 3.16 µM, first compound 0.01 µM
[23] = second compound 3.16 µM, first compound 0.0316 µM
[24] = second compound 3.16 µM, first compound 0.1 µM
[25] = second compound 10 µM, first compound 0.000316 µM
[26] = second compound 10 µM, first compound 0.001 µM
[27] = second compound 10 µM, first compound 0.00316 µM
[28] = second compound 10 µM, first compound 0.01 µM
[29] = second compound 10 µM, first compound 0.0316 µM
[30] = second compound 10 µM, first compound 0.1 µM

Structure (SMILES)	IC50 (second compound 0.1 µM) [nM]	IC50 (second compound 0.316 µM) [nM]	IC50 (second compound 1 µM) [nM]	IC50 (second compound 3.16 µM) [nM]	IC50 (second compound 10 µM) [nM]	viability, T/C [1] [%]	viability, T/C [2] [%]	viability, T/C [3] [%]	viability, T/C [4] [%]	viability, T/C [5] [%]	viability, T/C [6] [%]	viability, T/C [7] [%]	viability, T/C [8] [%]	viability, T/C [9] [%]	viability, T/C [10] [%]	viability, T/C [11] [%]	viability, T/C [12] [%]	viability, T/C [13] [%]	viability, T/C [14] [%]	viability, T/C [15] [%]	also measured
Cn1ncnc1C1c2n[nH]c(=O)c3cc(F)cc(c23)NC1c1ccc(F)cc1 (stereo not given) + NC1CC1c1ccc(-c2cccc(O)c2)cc1	87.7	> 100	> 100	12	2.6	98.1	102	72.5	73.1	64.6	46.7	120	79.1	67.4	60.9	52.8	46	93.2	112	67	viability, T/C [16]: 57.6%; viability, T/C [17]: 61.9%; viability, T/C [18]: 42.4%; viability, T/C [19]: 92.8%; viability, T/C [20]: 85.5%; viability, T/C [21]: 74.5%; viability, T/C [22]: 48.2%; viability, T/C [23]: 50.6%; viability, T/C [24]: 39.1%; viability, T/C [25]: 74.1%; viability, T/C [26]: 67.7%; viability, T/C [27]: 45.9%; viability, T/C [28]: 33.5%; viability, T/C [29]: 34.8%; viability, T/C [30]: 26.3%
CC(C)CC(NC(=O)C(Cc1ccccc1)NC(=O)c1cnccn1)B(O)O (stereo not given) + NC1CC1c1ccc(-c2cccc(O)c2)cc1	< 0.316	< 0.316	< 0.316	< 0.316	< 0.316	5.95	0.09	0.06	0.05	0.08	0.18	6.43	0.09	0.05	0.07	0.08	0.17	5.88	0.08	0.05	viability, T/C [16]: 0.04%; viability, T/C [17]: 0.06%; viability, T/C [18]: 0.17%; viability, T/C [19]: 5.66%; viability, T/C [20]: 0.06%; viability, T/C [21]: 0.07%; viability, T/C [22]: 0.04%; viability, T/C [23]: 0.14%; viability, T/C [24]: 0.15%; viability, T/C [25]: 3.55%; viability, T/C [26]: 0.16%; viability, T/C [27]: 0.12%; viability, T/C [28]: 0.12%; viability, T/C [29]: 0.14%; viability, T/C [30]: 0.2%
